Experimental data as given in PubChem BioAssay (NCI).
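Where inhibition never reached the appropriate level, the endpoint shown equals the highest concentration tested. Otherwise, values were interpolated linearly from a five-concentration, 48-hour dose response in 96-well plates. At the GI50, growth is halved. Definition used: TGI = concentration required for complete inhibition of growth.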

Key:
Assay in all cases: NCI anticancer screen, dose series, 48 h
MOLT-4 leukemia = system: MOLT-4 leukemia
CCRF-CEM leukemia = system: CCRF-CEM leukemia
T-47D breast = system: T-47D breast
A549 NSCLC = system: A549 NSCLC
LOX IMVI melanoma = system: LOX IMVI melanoma
EKVX NSCLC = system: EKVX NSCLC
RXF 393 renal = system: RXF 393 renal
UACC-257 melanoma = system: UACC-257 melanoma
OVCAR-4 ovarian = system: OVCAR-4 ovarian
OVCAR-3 ovarian = system: OVCAR-3 ovarian
SK-OV-3 ovarian = system: SK-OV-3 ovarian
ACHN renal = system: ACHN renal
HT29 colon = system: HT29 colon
NCI-H522 lung = system: NCI-H522 lung
786-0 renal = system: 786-0 renal
KM12 colon = system: KM12 colon
BT-549 breast = system: BT-549 breast
MDA-MB-435 = system: MDA-MB-435
RPMI-8226 leukemia = system: RPMI-8226 leukemia
HCT-15 colon = system: HCT-15 colon
SN12C renal = system: SN12C renal
NCI/ADR-RES ovarian = system: NCI/ADR-RES ovarian
M14 melanoma = system: M14 melanoma
IGROV1 ovarian = system: IGROV1 ovarian
UACC-62 melanoma = system: UACC-62 melanoma
SW-620 colon = system: SW-620 colon
MALME-3M melanoma = system: MALME-3M melanoma
NCI-H226 lung = system: NCI-H226 lung
COLO 205 colon = system: COLO 205 colon

## O=C(CSc1nnc(-c2ccc(Cl)cc2)n1-c1ccccc1)Nc1ccc(Cl)cc1
MOLT-4 leukemia
  GI50: > 100 µM
  TGI: > 100 µM
CCRF-CEM leukemia
  GI50: > 100 µM
  TGI: > 100 µM
T-47D breast
  GI50: 3.2 µM
  TGI: > 100 µM
A549 NSCLC
  GI50: 3.67 µM
  TGI: > 100 µM
LOX IMVI melanoma
  GI50: 2.98 µM
  TGI: 10.2 µM
EKVX NSCLC
  GI50: 20.9 µM
  TGI: > 100 µM
RXF 393 renal
  GI50: 2.03 µM
  TGI: 4.98 µM
UACC-257 melanoma
  GI50: 39.8 µM
  TGI: > 100 µM
OVCAR-4 ovarian
  GI50: 3.38 µM
  TGI: > 100 µM
OVCAR-3 ovarian
  GI50: 6.2 µM
  TGI: 57.8 µM
SK-OV-3 ovarian
  GI50: 4.53 µM
  TGI: 17.3 µM
ACHN renal
  GI50: 1.76 µM
  TGI: 3.98 µM
HT29 colon
  GI50: 7.79 µM
  TGI: > 100 µM
NCI-H522 lung
  GI50: 3.11 µM
  TGI: 17.2 µM
786-0 renal
  GI50: 1.92 µM
  TGI: 4.09 µM
KM12 colon
  GI50: 47.1 µM
  TGI: > 100 µM
BT-549 breast
  GI50: 3.66 µM
  TGI: 38.8 µM
MDA-MB-435
  GI50: 21.5 µM
  TGI: > 100 µM
RPMI-8226 leukemia
  GI50: 4.14 µM
  TGI: > 100 µM
HCT-15 colon
  GI50: 87.1 µM
  TGI: > 100 µM
SN12C renal
  GI50: 3.19 µM
  TGI: > 100 µM
NCI/ADR-RES ovarian
  GI50: 4.06 µM
  TGI: > 100 µM
M14 melanoma
  GI50: 25.1 µM
  TGI: > 100 µM
IGROV1 ovarian
  GI50: 5.24 µM
  TGI: > 100 µM
UACC-62 melanoma
  GI50: 4.81 µM
  TGI: > 100 µM
SW-620 colon
  GI50: 8.68 µM
  TGI: > 100 µM
MALME-3M melanoma
  GI50: 3.67 µM
  TGI: 22.3 µM
NCI-H226 lung
  GI50: 3.2 µM
  TGI: 20.8 µM
COLO 205 colon
  GI50: 15.7 µM
